Measurements: ChEMBL document CHEMBL3044903, “Synthesis and Herbicidal Activity of Novel 3-Alkoxycarbonyl-3-aryl-2,3-dihydro-2-oxo-1H-pyrrole Derivatives” (J Pestic Sci, 2004)

How the values were obtained:
[1] = test system: Schoenoplectiella juncoides; assay: Pre-emergence herbicide activity against Schoenoplectiella juncoides under greenhouse condition at 1 g a.i/a measured after 3 weeks; assay type: functional
[2] = test system: Schoenoplectiella juncoides; assay: Pre-emergence herbicide activity against Schoenoplectiella juncoides under greenhouse condition at 10 g a.i/a measured after 3 weeks; assay type: functional
Echinochloa oryzicola [3] = assay: Pre-emergence herbicide activity against Echinochloa oryzicola under greenhouse condition at 1 g a.i/a measured after 3 weeks; assay type: functional
Echinochloa oryzicola [4] = assay: Post-emergence herbicide activity against Echinochloa oryzicola under greenhouse condition at 1 g a.i/a treated at one-leaf stage measured after 3 weeks; assay type: functional
Echinochloa oryzicola [5] = assay: Post-emergence herbicide activity against Echinochloa oryzicola under greenhouse condition at 10 g a.i/a treated at one-leaf stage measured after 3 weeks; assay type: functional
Echinochloa oryzicola [6] = assay: Pre-emergence herbicide activity against Echinochloa oryzicola under greenhouse condition at 10 g a.i/a measured after 3 weeks; assay type: functional
[7] = test system: Schoenoplectiella juncoides; assay: Post-emergence herbicide activity against Schoenoplectiella juncoides under greenhouse condition at 1 g a.i/a treated at one-leaf stage measured after 3 weeks; assay type: functional
[8] = test system: Schoenoplectiella juncoides; assay: Post-emergence herbicide activity against Schoenoplectiella juncoides under greenhouse condition at 10 g a.i/a treated at one-leaf stage measured after 3 weeks; assay type: functional
Oryza sativa [9] = assay: Phytotoxicity against two-leaf stage Oryza sativa cv. Nipponbare (rice) planted zero cm depth at 5.0 g a.i/a measured after 3 weeks; assay type: organism-based; details: in vivo, 504 h
Oryza sativa [10] = assay: Phytotoxicity against two-leaf stage Oryza sativa cv. Nipponbare (rice) planted 2 cm depth at 1 g a.i/a measured after 3 weeks; assay type: organism-based; details: in vivo, other, 504 h
Oryza sativa [11] = assay: Phytotoxicity against two-leaf stage Oryza sativa cv. Nipponbare (rice) planted 2 cm depth at 2.5 g a.i/a measured after 3 weeks; assay type: organism-based; details: in vivo, 504 h
Oryza sativa [12] = assay: Phytotoxicity against two-leaf stage Oryza sativa cv. Nipponbare (rice) planted 2 cm depth at 5.0 g a.i/a measured after 3 weeks; assay type: organism-based; details: in vivo, 504 h
Echinochloa oryzicola [13] = assay: Herbicidal activity against Echinochloa oryzicola at 1 g a.i/a treated at 2.5 leaf stage measured after 3 weeks; assay type: functional
Echinochloa oryzicola [14] = assay: Herbicidal activity against Echinochloa oryzicola at 2.5 g a.i/a treated at 2.5 leaf stage measured after 3 weeks; assay type: functional
Echinochloa oryzicola [15] = assay: Herbicidal activity against Echinochloa oryzicola at 5.0 g a.i/a treated at 2.5 leaf stage measured after 3 weeks; assay type: functional
Echinochloa oryzicola [16] = assay: Herbicidal activity against Echinochloa oryzicola at 1 g a.i/a treated at 1.5 leaf stage measured after 3 weeks; assay type: functional
Echinochloa oryzicola [17] = assay: Herbicidal activity against Echinochloa oryzicola at 2.5 g a.i/a treated at 1.5 leaf stage measured after 3 weeks; assay type: functional
Echinochloa oryzicola [18] = assay: Herbicidal activity against Echinochloa oryzicola at 5.0 g a.i/a treated at 1.5 leaf stage measured after 3 weeks; assay type: functional
[19] = Drug degradation in MeOH-water/KOH at 70 degC assessed as formation of 1-[1-(3,5-dichlorophenyl)-1-methylethyl]-4-methyl-3- phenyl-3-pyrrolin-2-one; assay type: physicochemical; details: buffer
Oryza sativa [20] = assay: Phytotoxicity against two-leaf stage Oryza sativa cv. Nipponbare (rice) planted zero cm depth at 2.5 g a.i/a measured after 3 weeks; assay type: organism-based; details: in vivo, other, 504 h
Oryza sativa [21] = assay: Phytotoxicity against two-leaf stage Oryza sativa cv. Nipponbare (rice) planted 2 cm depth assessed as crop injury at 3 g a.i/a followed by leaching of irrigation water for 3 days measured after 3 weeks post-treatment; assay type: organism-based; details: in vivo, other, 504 h
Oryza sativa [22] = assay: Phytotoxicity against two-leaf stage Oryza sativa cv. Nipponbare (rice) planted 2 cm depth assessed as crop injury at 6 g a.i/a followed by leaching of irrigation water for 3 days measured after 3 weeks post-treatment; assay type: organism-based; details: in vivo, other, 504 h
Oryza sativa [23] = assay: Phytotoxicity against two-leaf stage Oryza sativa cv. Nipponbare (rice) planted zero cm depth at 1 g a.i/a measured after 3 weeks; assay type: organism-based; details: in vivo, other, 504 h

Which results are given for `COC(=O)C1(c2ccccc2)C(=O)N(C(C)(C)c2cc(Cl)cc(Cl)c2)C=C1C` (stereo not drawn)?
Activity [1]: 100%; Activity [2]: 100%; Activity (Echinochloa oryzicola [3]): 100%; Activity (Echinochloa oryzicola [4]): 87.6%; Activity (Echinochloa oryzicola [5]): 100%; Activity (Echinochloa oryzicola [6]): 100%; Activity [7]: 0.1%; Activity [8]: 87.6%; Activity (Oryza sativa [9]): 80%; Activity (Oryza sativa [10]): 0%; Activity (Oryza sativa [11]): 0%; Activity (Oryza sativa [12]): 0%; Activity (Echinochloa oryzicola [13]): 60%; Activity (Echinochloa oryzicola [14]): 95%; Activity (Echinochloa oryzicola [15]): 98%; Activity (Echinochloa oryzicola [16]): 98%; Activity (Echinochloa oryzicola [17]): 98%; Activity (Echinochloa oryzicola [18]): 100%; Stability [19]: Unstable; Activity (Oryza sativa [20]): 10%; Activity (Oryza sativa [21]): 0%; Activity (Oryza sativa [22]): 7%; Activity (Oryza sativa [23]): 0%
